Experimental data reported in ChEMBL document CHEMBL1201862, “PubChem BioAssay data set” (2004).
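All cell lines were grown in 96-well plates and treated with compound for 48 hours. Here, GI50 denotes the concentration required for 50% inhibition of growth.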 Activity calls are given as the source filed them. Cut-off read from the data, not from the text of the source: active = GI50 up to about 1.1 µM and inactive = higher.

What was measured:
Test in all cases: inhibition of tumour cell growth, NCI panel, 48 h
[1] = system: K562
[2] = system: M14
[3] = system: PC-3
[4] = system: HT-29
[5] = system: UO-31
[6] = system: OVCAR-4
[7] = system: NCI-H226
[8] = system: SW-620
[9] = system: MDA-N
[10] = system: SF-539
[11] = system: SN12C
[12] = system: HCC 2998
[13] = system: IGROV-1
[14] = system: HOP-62
[15] = system: MCF7
[16] = system: SK-MEL-28
[17] = system: HCT-15
[18] = system: OVCAR-5
[19] = system: NCI-H522
[20] = system: HL-60
[21] = system: SR
[22] = system: SNB-75
[23] = system: EKVX
[24] = system: SK-OV-3
[25] = system: Hs-578T
[26] = system: MOLT-4
[27] = system: MDA-MB-435
[28] = system: A549
[29] = system: U-251
[30] = system: NCI-H460
[31] = system: NCI-H23
[32] = system: ACHN
[33] = system: Malme-3M
[34] = system: KM12
[35] = system: OVCAR-3
[36] = system: 786-0
[37] = system: COLO 205
[38] = system: NCI/ADR-RES
[39] = system: LOX IMVI
[40] = system: SF-268
[41] = system: OVCAR-8
[42] = system: RPMI-8226
[43] = system: SK-MEL-5
[44] = system: SNB-19
[45] = system: HOP-92
[46] = system: SF-295
[47] = system: T47D
[48] = system: HCT-116
[49] = system: BT-549
[50] = system: MDA-MB-231
[51] = system: CCRF-CEM
[52] = system: DU-145
[53] = system: CAKI-1
[54] = system: UACC-62
[55] = system: UACC-257
[56] = system: TK-10
[57] = system: SK-MEL-2
[58] = system: RXF 393

Cc1n[nH]c(=O)n1Nc1ccccc1 was tested, and the GI50 [1] was > 100 µM (inactive), the GI50 [2] was > 100 µM (inactive) and the GI50 [3] was > 100 µM (inactive). For the same compound, the GI50 [4] was > 100 µM (inactive), the GI50 [5] was > 100 µM (inactive) and the GI50 [6] was > 100 µM (inactive). For the same compound, the GI50 [7] was > 100 µM (inactive), the GI50 [8] was > 100 µM (inactive) and the GI50 [9] was > 100 µM (inactive). For the same compound, the GI50 [10] was > 100 µM (inactive), the GI50 [11] was > 100 µM (inactive) and the GI50 [12] was > 100 µM (inactive). For the same compound, the GI50 [13] was > 100 µM (inactive), the GI50 [14] was > 100 µM (inactive) and the GI50 [15] was > 100 µM (inactive). The GI50 [16] was > 100 µM (inactive), the GI50 [17] was > 100 µM and the GI50 [18] was > 100 µM (inactive). For the same compound, the GI50 [19] was > 100 µM (inactive), the GI50 [20] was > 100 µM (inactive) and the GI50 [21] was > 100 µM (inactive). The GI50 [22] was > 100 µM (inactive), the GI50 [23] was > 100 µM (inactive) and the GI50 [24] was > 100 µM (inactive). The GI50 [25] was > 100 µM (inactive), the GI50 [26] was > 100 µM (inactive) and the GI50 [27] was > 100 µM (inactive). The GI50 [28] was > 100 µM (inactive), the GI50 [29] was > 100 µM (inactive) and the GI50 [30] was > 100 µM (inactive). The GI50 [31] was > 100 µM (inactive), the GI50 [32] was > 100 µM (inactive) and the GI50 [33] was > 100 µM (inactive). For the same compound, the GI50 [34] was > 100 µM (inactive), the GI50 [35] was > 100 µM (inactive) and the GI50 [36] was > 100 µM (inactive). For the same compound, the GI50 [37] was > 100 µM (inactive), the GI50 [38] was > 100 µM (inactive) and the GI50 [39] was > 100 µM (inactive). For the same compound, the GI50 [40] was > 100 µM (inactive), the GI50 [41] was > 100 µM (inactive) and the GI50 [42] was > 100 µM (inactive). For the same compound, the GI50 [43] was > 100 µM (inactive), the GI50 [44] was > 100 µM (inactive) and the GI50 [45] was > 100 µM (inactive). For the same compound, the GI50 [46] was > 100 µM (inactive), the GI50 [47] was > 100 µM (inactive) and the GI50 [48] was > 100 µM (inactive). The GI50 [49] was > 100 µM (inactive), the GI50 [50] was > 100 µM (inactive) and the GI50 [51] was > 100 µM (inactive). The GI50 [52] was > 100 µM (inactive), the GI50 [53] was > 100 µM (inactive) and the GI50 [54] was > 100 µM (inactive). The GI50 [55] was > 100 µM (inactive).

In the case of CCOC(=O)C(NC(=O)c1ccccc1)(Nc1ccc(S(=O)(=O)Nc2ncccn2)cc1)C(F)(F)F (configuration not stated), the GI50 [1] was > 100 µM (inactive), the GI50 [2] was > 100 µM (inactive) and the GI50 [3] was > 100 µM (inactive). The GI50 [4] was > 100 µM (inactive), the GI50 [5] was > 100 µM (inactive) and the GI50 [6] was > 100 µM (inactive). The GI50 [7] was > 100 µM (inactive), the GI50 [8] was > 100 µM (inactive) and the GI50 [9] was > 100 µM (inactive). For the same compound, the GI50 [10] was > 100 µM (inactive), the GI50 [11] was > 100 µM (inactive) and the GI50 [12] was > 100 µM (inactive). For the same compound, the GI50 [13] was > 100 µM (inactive), the GI50 [14] was > 100 µM (inactive) and the GI50 [15] was > 100 µM (inactive). The GI50 [16] was > 100 µM (inactive), the GI50 [17] was > 100 µM and the GI50 [18] was > 100 µM (inactive). For the same compound, the GI50 [56] was > 100 µM (inactive), the GI50 [20] was > 100 µM (inactive) and the GI50 [21] was > 100 µM (inactive). The GI50 [22] was > 100 µM (inactive), the GI50 [23] was > 100 µM (inactive) and the GI50 [24] was 0.513 µM (active). The GI50 [25] was > 100 µM (inactive), the GI50 [26] was > 100 µM (inactive) and the GI50 [27] was > 100 µM (inactive). The GI50 [28] was > 100 µM (inactive), the GI50 [29] was > 100 µM (inactive) and the GI50 [30] was > 100 µM (inactive). For the same compound, the GI50 [31] was > 100 µM (inactive), the GI50 [32] was > 100 µM (inactive) and the GI50 [33] was > 100 µM (inactive). The GI50 [34] was > 100 µM (inactive), the GI50 [35] was > 100 µM (inactive) and the GI50 [36] was > 100 µM (inactive). For the same compound, the GI50 [37] was > 100 µM (inactive), the GI50 [38] was > 100 µM (inactive) and the GI50 [39] was > 100 µM (inactive). For the same compound, the GI50 [40] was > 100 µM (inactive), the GI50 [41] was > 100 µM (inactive) and the GI50 [57] was > 100 µM (inactive). The GI50 [58] was > 100 µM (inactive), the GI50 [42] was > 100 µM (inactive) and the GI50 [43] was > 100 µM (inactive). For the same compound, the GI50 [44] was > 100 µM (inactive), the GI50 [45] was > 100 µM (inactive) and the GI50 [46] was > 100 µM (inactive). The GI50 [47] was > 100 µM (inactive), the GI50 [48] was > 100 µM (inactive) and the GI50 [49] was > 100 µM (inactive). For the same compound, the GI50 [50] was > 100 µM (inactive), the GI50 [51] was > 100 µM (inactive) and the GI50 [52] was > 100 µM (inactive). The GI50 [53] was > 100 µM (inactive), the GI50 [54] was > 100 µM (inactive) and the GI50 [55] was > 100 µM (inactive).
